Source: patent US6653339B2, “Method of treating irritable bowel syndrome” (Pfizer Inc., priority 2001, dated 2003)

Key:
Assay type in all cases: in vivo, human
[1] = Day 6 plasma concentrations of darifenacin, four-way crossover study in healthy male subjects; details: 7.5 mg tid immediate release capsule vs 20 mg SR od matrix tablet, healthy volunteers
irritable bowel syndrome [2] = test: Clinical Study 2, controlled (slow) release darifenacin once daily vs placebo in irritable bowel syndrome; details: 12 weeks; for Constipation % of patients reporting AEs / Dry Mouth % of patients reporting AEs / Global Rating % Reduction from baseline / Loose Stool % Reduction from baseline / Pain Score % Reduction from baseline / Total AE % of patients reporting AEs / Urgency % Reduction from baseline / Vision % of patients reporting AEs: uncorrected
From the text: (§1) The invention may be illustrated by the following clinical studies wherein the treatment of irritable bowel syndrome using darifenacin administered as a once-daily controlled (slow) release formulation in accordance with the prior art is compared with treatment using darifenacin administered as a thrice daily immediate release formulation in accordance with the present invention. Specifically, Clinical Studies 1 and 2 used controlled (slow) release formulations of darifenacin administered once daily (od) and Clinical Study 3 used an immediate release formulation of darifenacin administered three times daily (tid).
(§2) During each clinical study, four efficacy measures of irritable bowel syndrome severity were measured, viz. ‘Pain Score’ (Average daily pain score, a composite of severity and number of days of pain), ‘Loose Stool’ (Number of days on which loose or watery stool occurred), ‘Urgency’ (Number of days on which urgency occured) and so-called ‘Global Rating’ (Patient rating of their condition taking into account all symptoms, 0=no problems). Adverse events (AE) such as constipation, dry mouth and visual abnormalities were also recorded.
Clinical Study 2 was a multi-centre, double-blind, randomised, placebo-controlled parallel group study in which four dose strengths of darifenacin of 3.75 mg, 7.5 mg, 15 mg and 30 mg dosed od were compared with placebo. Treatment lasted 12 weeks following a 2-week run-in period.
(§3) The controlled (slow) release dosage forms of darifenacin used in Clinical Studies 1 and 2 were 3.75 mg, 7.5 mg, 15.0 mg and 30.0 mg tablets having the following compositions: […]

irritable bowel syndrome [3] = test: Clinical Study 1, controlled (slow) release darifenacin once daily vs placebo in irritable bowel syndrome; details: for Constipation % of patients reporting AEs corrected for placebo / Dry Mouth % of patients reporting AEs corrected for placebo / Global Rating % Reduction from baseline corrected for placebo / Loose Stool % Reduction from baseline corrected for placebo / Pain Score % Reduction from baseline corrected for placebo / Total AE % of patients reporting AEs corrected for placebo / Urgency % Reduction from baseline corrected for placebo / Vision % of patients reporting AEs corrected for placebo / Constipation % of patients reporting AEs / Dry Mouth % of patients reporting AEs / Global Rating % Reduction from baseline / Loose Stool % Reduction from baseline / Pain Score % Reduction from baseline / Total AE % of patients reporting AEs / Urgency % Reduction from baseline / Vision % of patients reporting AEs: Clinical Study 1, 12 weeks; for Constipation % of patients reporting AEs / Dry Mouth % of patients reporting AEs / Global Rating % Reduction from baseline / Loose Stool % Reduction from baseline / Pain Score % Reduction from baseline / Total AE % of patients reporting AEs / Urgency % Reduction from baseline / Vision % of patients reporting AEs: uncorrected
From the text: as §1, §2
Clinical Study 1 was a multi-centre, double-blind, randomised, placebo-controlled parallel group study in which three dose strengths of darifenacin of 3.75 mg, 7.5 mg and 15 mg dosed od were compared with placebo. Treatment lasted 12 weeks following a 2-week run-in period.
as §3

[4] = controlled release tablet 3.75 mg od
[5] = controlled release tablet 7.5 mg od
[6] = controlled release tablet 15 mg od
[7] = controlled release tablet 30 mg od
[8] = both controlled release od studies (Clinical Studies 1 and 2)

NC(=O)C(c1ccccc1)(c1ccccc1)[C@@H]1CCN(CCc2ccc3c(c2)CCO3)C1 [darifenacin]
darifenacin plasma concentration (FIG. 1) [1]: periodic ‘peaking’ of the darifenacin plasma concentration above that of the controlled release curve | Constipation % of patients reporting AEs corrected for placebo (irritable bowel syndrome [2]; [4]): 4.5% | Dry Mouth % of patients reporting AEs corrected for placebo (irritable bowel syndrome [2]; [4]): 4.4% | Global Rating % Reduction from baseline corrected for placebo (irritable bowel syndrome [2]; [4]): −7% | Loose Stool % Reduction from baseline corrected for placebo (irritable bowel syndrome [2]; [4]): 8% | Pain Score % Reduction from baseline corrected for placebo (irritable bowel syndrome [2]; [4]): −9% | Total AE % of patients reporting AEs corrected for placebo (irritable bowel syndrome [2]; [4]): 6% | Urgency % Reduction from baseline corrected for placebo (irritable bowel syndrome [2]; [4]): −1% | Vision % of patients reporting AEs corrected for placebo (irritable bowel syndrome [2]; [4]): 0.7% | Constipation % of patients reporting AEs (irritable bowel syndrome [2]; [4]): 6.4% | Dry Mouth % of patients reporting AEs (irritable bowel syndrome [2]; [4]): 9.6% | Global Rating % Reduction from baseline (irritable bowel syndrome [2]; [4]): 21% | Loose Stool % Reduction from baseline (irritable bowel syndrome [2]; [4]): 31% | Pain Score % Reduction from baseline (irritable bowel syndrome [2]; [4]): 28% | Total AE % of patients reporting AEs (irritable bowel syndrome [2]; [4]): 22% | Urgency % Reduction from baseline (irritable bowel syndrome [2]; [4]): 24% | Vision % of patients reporting AEs (irritable bowel syndrome [2]; [4]): 1.3% | Constipation % of patients reporting AEs corrected for placebo (irritable bowel syndrome [2]; [5]): 5.9% | Dry Mouth % of patients reporting AEs corrected for placebo (irritable bowel syndrome [2]; [5]): 4.4% | Global Rating % Reduction from baseline corrected for placebo (irritable bowel syndrome [2]; [5]): −1% | Loose Stool % Reduction from baseline corrected for placebo (irritable bowel syndrome [2]; [5]): 16% | Pain Score % Reduction from baseline corrected for placebo (irritable bowel syndrome [2]; [5]): 0% | Total AE % of patients reporting AEs corrected for placebo (irritable bowel syndrome [2]; [5]): 6% | Urgency % Reduction from baseline corrected for placebo (irritable bowel syndrome [2]; [5]): 8% | Vision % of patients reporting AEs corrected for placebo (irritable bowel syndrome [2]; [5]): 0.6% | Constipation % of patients reporting AEs (irritable bowel syndrome [2]; [5]): 7.8% | Dry Mouth % of patients reporting AEs (irritable bowel syndrome [2]; [5]): 9.6% | Global Rating % Reduction from baseline (irritable bowel syndrome [2]; [5]): 27% | Loose Stool % Reduction from baseline (irritable bowel syndrome [2]; [5]): 39% | Pain Score % Reduction from baseline (irritable bowel syndrome [2]; [5]): 37% | Total AE % of patients reporting AEs (irritable bowel syndrome [2]; [5]): 22% | Urgency % Reduction from baseline (irritable bowel syndrome [2]; [5]): 33% | Vision % of patients reporting AEs (irritable bowel syndrome [2]; [5]): 1.2% | Constipation % of patients reporting AEs corrected for placebo (irritable bowel syndrome [2]; [6]): 11.6% | Dry Mouth % of patients reporting AEs corrected for placebo (irritable bowel syndrome [2]; [6]): 19.8% | Global Rating % Reduction from baseline corrected for placebo (irritable bowel syndrome [2]; [6]): 4% | Loose Stool % Reduction from baseline corrected for placebo (irritable bowel syndrome [2]; [6]): 30% | Pain Score % Reduction from baseline corrected for placebo (irritable bowel syndrome [2]; [6]): 2% | Total AE % of patients reporting AEs corrected for placebo (irritable bowel syndrome [2]; [6]): 15% | Urgency % Reduction from baseline corrected for placebo (irritable bowel syndrome [2]; [6]): 22% | Vision % of patients reporting AEs corrected for placebo (irritable bowel syndrome [2]; [6]): 2.6% | Constipation % of patients reporting AEs (irritable bowel syndrome [2]; [6]): 13.5% | Dry Mouth % of patients reporting AEs (irritable bowel syndrome [2]; [6]): 25% | Global Rating % Reduction from baseline (irritable bowel syndrome [2]; [6]): 32% | Loose Stool % Reduction from baseline (irritable bowel syndrome [2]; [6]): 53% | Pain Score % Reduction from baseline (irritable bowel syndrome [2]; [6]): 39% | Total AE % of patients reporting AEs (irritable bowel syndrome [2]; [6]): 41% | Urgency % Reduction from baseline (irritable bowel syndrome [2]; [6]): 47% | Vision % of patients reporting AEs (irritable bowel syndrome [2]; [6]): 3.2% | Constipation % of patients reporting AEs corrected for placebo (irritable bowel syndrome [2]; [7]): 15.1% | Dry Mouth % of patients reporting AEs corrected for placebo (irritable bowel syndrome [2]; [7]): 30.7% | Global Rating % Reduction from baseline corrected for placebo (irritable bowel syndrome [2]; [7]): 8% | Loose Stool % Reduction from baseline corrected for placebo (irritable bowel syndrome [2]; [7]): 27% | Pain Score % Reduction from baseline corrected for placebo (irritable bowel syndrome [2]; [7]): 3% | Total AE % of patients reporting AEs corrected for placebo (irritable bowel syndrome [2]; [7]): 34% | Urgency % Reduction from baseline corrected for placebo (irritable bowel syndrome [2]; [7]): 26% | Vision % of patients reporting AEs corrected for placebo (irritable bowel syndrome [2]; [7]): 4.6% | Constipation % of patients reporting AEs (irritable bowel syndrome [2]; [7]): 17% | Dry Mouth % of patients reporting AEs (irritable bowel syndrome [2]; [7]): 35.9% | Global Rating % Reduction from baseline (irritable bowel syndrome [2]; [7]): 36% | Loose Stool % Reduction from baseline (irritable bowel syndrome [2]; [7]): 50% | Pain Score % Reduction from baseline (irritable bowel syndrome [2]; [7]): 40% | Total AE % of patients reporting AEs (irritable bowel syndrome [2]; [7]): 50% | Urgency % Reduction from baseline (irritable bowel syndrome [2]; [7]): 41% | Vision % of patients reporting AEs (irritable bowel syndrome [2]; [7]): 5.2% | Constipation % of patients reporting AEs corrected for placebo (irritable bowel syndrome [3]; [4]): 1.4% | Dry Mouth % of patients reporting AEs corrected for placebo (irritable bowel syndrome [3]; [4]): 2.5% | Global Rating % Reduction from baseline corrected for placebo (irritable bowel syndrome [3]; [4]): −2% | Loose Stool % Reduction from baseline corrected for placebo (irritable bowel syndrome [3]; [4]): 4% | Pain Score % Reduction from baseline corrected for placebo (irritable bowel syndrome [3]; [4]): −3% | Total AE % of patients reporting AEs corrected for placebo (irritable bowel syndrome [3]; [4]): 2% | Urgency % Reduction from baseline corrected for placebo (irritable bowel syndrome [3]; [4]): 18% | Vision % of patients reporting AEs corrected for placebo (irritable bowel syndrome [3]; [4]): 5.4% | Constipation % of patients reporting AEs (irritable bowel syndrome [3]; [4]): 7.2% | Dry Mouth % of patients reporting AEs (irritable bowel syndrome [3]; [4]): 10.2% | Global Rating % Reduction from baseline (irritable bowel syndrome [3]; [4]): 27% | Loose Stool % Reduction from baseline (irritable bowel syndrome [3]; [4]): 37% | Pain Score % Reduction from baseline (irritable bowel syndrome [3]; [4]): 35% | Total AE % of patients reporting AEs (irritable bowel syndrome [3]; [4]): 27% | Urgency % Reduction from baseline (irritable bowel syndrome [3]; [4]): 41% | Vision % of patients reporting AEs (irritable bowel syndrome [3]; [4]): 5.4% | Constipation % of patients reporting AEs corrected for placebo (irritable bowel syndrome [3]; [5]): 4.7% | Dry Mouth % of patients reporting AEs corrected for placebo (irritable bowel syndrome [3]; [5]): 6.5% | Global Rating % Reduction from baseline corrected for placebo (irritable bowel syndrome [3]; [5]): 0% | Loose Stool % Reduction from baseline corrected for placebo (irritable bowel syndrome [3]; [5]): 4% | Pain Score % Reduction from baseline corrected for placebo (irritable bowel syndrome [3]; [5]): 5% | Total AE % of patients reporting AEs corrected for placebo (irritable bowel syndrome [3]; [5]): 3% | Urgency % Reduction from baseline corrected for placebo (irritable bowel syndrome [3]; [5]): 17% | Vision % of patients reporting AEs corrected for placebo (irritable bowel syndrome [3]; [5]): 4.3% | Constipation % of patients reporting AEs (irritable bowel syndrome [3]; [5]): 10.5% | Dry Mouth % of patients reporting AEs (irritable bowel syndrome [3]; [5]): 14.2% | Global Rating % Reduction from baseline (irritable bowel syndrome [3]; [5]): 29% | Loose Stool % Reduction from baseline (irritable bowel syndrome [3]; [5]): 37% | Pain Score % Reduction from baseline (irritable bowel syndrome [3]; [5]): 43% | Total AE % of patients reporting AEs (irritable bowel syndrome [3]; [5]): 28% | Urgency % Reduction from baseline (irritable bowel syndrome [3]; [5]): 40% | Vision % of patients reporting AEs (irritable bowel syndrome [3]; [5]): 4.3% | Constipation % of patients reporting AEs corrected for placebo (irritable bowel syndrome [3]; [6]): 9.4% | Dry Mouth % of patients reporting AEs corrected for placebo (irritable bowel syndrome [3]; [6]): 20.8% | Global Rating % Reduction from baseline corrected for placebo (irritable bowel syndrome [3]; [6]): 2% | Loose Stool % Reduction from baseline corrected for placebo (irritable bowel syndrome [3]; [6]): 14% | Pain Score % Reduction from baseline corrected for placebo (irritable bowel syndrome [3]; [6]): 1% | Total AE % of patients reporting AEs corrected for placebo (irritable bowel syndrome [3]; [6]): 15% | Urgency % Reduction from baseline corrected for placebo (irritable bowel syndrome [3]; [6]): 27% | Vision % of patients reporting AEs corrected for placebo (irritable bowel syndrome [3]; [6]): 3.3% | Constipation % of patients reporting AEs (irritable bowel syndrome [3]; [6]): 15.2% | Dry Mouth % of patients reporting AEs (irritable bowel syndrome [3]; [6]): 28.5% | Global Rating % Reduction from baseline (irritable bowel syndrome [3]; [6]): 31% | Loose Stool % Reduction from baseline (irritable bowel syndrome [3]; [6]): 47% | Pain Score % Reduction from baseline (irritable bowel syndrome [3]; [6]): 39% | Total AE % of patients reporting AEs (irritable bowel syndrome [3]; [6]): 40% | Urgency % Reduction from baseline (irritable bowel syndrome [3]; [6]): 50% | Vision % of patients reporting AEs (irritable bowel syndrome [3]; [6]): 3.3% | key measures of Pain Score and Global Rating (irritable bowel syndrome [3]; [8]): no effects were seen | number of adverse effects (irritable bowel syndrome [3]; [8]): marked increase with dose | efficacy measures of Loose Stool and Urgency (irritable bowel syndrome [3]; both controlled release od studies (Clinical Studies 1 and 2), higher doses): improvements
